Measurements reported in patent US11147801B2, “Methods of use for trisubstituted benzotriazole derivatives as dihydroorotate oxygenase inhibitors” (Aurigene Discovery Technologies Limited, priority 2017, dated 2021).

Legend:
[1] = target: DHODH (Homo sapiens (Human), UniProt Q02127); assay: DHODH activity assay (coupled enzyme assay, DCIP reduction); type: biochemical; details: read-out: DHODH inhibition activity, IC50 group
Method: The DHODH activity assay is a coupled enzyme assay in which oxidation of DHO and subsequent reduction of ubiquinone are stoichiometrically equivalent to the reduction of DCIP ([…]). The reduction of DCIP is accompanied by a loss of absorbance at 610 nm.
Buffer Preparation: 50 mM tris HCl, 150 mM KCl, and pH 8.0, 0.8% triton.
L-Dihydroorotic acid stock solution of 20 mM in buffer.
2, 6-Dichloroindophenol Sodium salt hydrate stock solution of 20 mM in buffer.
Decylubiquinone stock solution of 20 mM in buffer.
5 μL of Dimethyl sulfoxide or a compound of formula (I) in DMSO solution was added to the wells of a 96 well plate. Compounds of formula (I) were measured at 10 μM.
Protein along with buffer was added, so that the total volume including the DMSO was 87 μL. Compound and protein were incubated for half an hour at room temperature after mixing. 5 μL of 20 mM solution of L-Dihydroorotic acid, 5 μL of 2 mM solution of Decylubiquinone and 3 μL of 2 mM solution of 2, 6-Dichloroindophenol sodium salt hydrate were added to the above solution (total assay volume 100 μL). The mixture was stirred for 2 min and absorbance was recorded at every 10 min at 610 nanometers.
Percent inhibition is calculated as follows: […]
A 2 mM DMSO stock solution of the selected trisubstituted benzoimidazole and benzotriazole derivatives of formula (I) of the present invention to be examined was prepared. Subsequent ⅓rd dilutions were made.
5 μL of each stock of compound of formula (I) was used for each 100 μL assay. Therefore, 5 μL of the 2 mM stock provided 100 μL of 100 μM solution of compound of formula (I), when made up with buffer, protein and substrate. See also: Ulrich et al. (2001) Eur. J. Biochem.268, 1861-1868.

[2] = tested on: Ramos cells; assay: Ramos proliferation assay (XTT); type: cell-based; details: Homo sapiens, 72 hrs; for inhibition at 30 µM: read-out: Maximum % Inhibition at 30 μM; for IC50: XTT
Description: Cell proliferation assay is a sensitive method for quantification of viable cells in cytotoxicity or proliferation assay. The XTT (2,3-bis[2-Methoxy-4-nitro-5-sulfophenyl]-2 H-tetrazolium-5-carboxyanilide inner salt) system is a means of measuring the activity of living cells via mitochondrial dehydrogenases. Mitochondrial dehydrogenases of viable cells cleave the tetrazolium ring of XTT, yielding orange formazon crystals which are soluble in aqueous solutions. The XTT solution is potentiated by the addition of an electron coupling agent, phenazine methosulphate (PMS) to the reaction. The resulting orange colour is spectrophotometrically measured at 450 nm. An increase or decrease in cell numbers results in a concomitant change in the amount of formazon formed, indicating the degree of cytotoxicity caused by the test material.
Dissolve 17.7 g IMDM (Iscove's Modified Dulbecco's Medium) powder, 1.5 g sodium bicarbonate pH 7.2-7.4 in 1 L MiliQ water, add 1% Pencilin/ Streptomycin and 10% FBS.
Dissolve 10.6 g Ham's F12 powder, 1.5 g sodium bicarbonate pH 7.2-7.4 in 1 L MiliQ water, add 1% Penicillin/Streptomycin. DMSO used as vehicle.
Ramos cells were re-suspended to a density of 1×10^5 cells/ ml in complete IMDM medium. 95 μL of this cell suspension was added to the 96-well plate to seed ˜10,000 cells per well. The plates were incubated at 37° C. under a humidified atmosphere of 5% CO2 for ˜1 hour before compound addition.
Test compounds (Refer to Table 1) were dissolved in 100% DMSO to generate a 2/6/10/20 mM stock solution. A 200× concentration of the required final concentrations was prepared in DMSO. 10 μL of each concentration (200×) was then diluted in 90 μL of serum-free Ham's F12 medium to get an intermediate concentration of 20× in medium. The DMSO concentration in this step is 10% (Intermediate dilution). 5 μL of each intermediate dilution was then added in triplicates in the previously seeded 96-well plate. The final DMSO concentration was 0.5% in the experimental wells. Cells treated with 0.5% DMSO served as positive control. 100 μL, of complete IMDM medium served as media blank for data analysis. 200 μL, of 1× PBS was added in all corner wells of the assay plate. Plates were then incubated for 72 hrs in an incubator with 5% CO2 at 37° C.
On termination day, 100 μl of XTT solution (1 mg/ml XTT supplemented with 25 μM PMS in Ham's F12 medium) was added to each well. Plates were incubated for 2 hrs. The amount of formazon produced was determined by reading the absorbance of the plate using VICTOR X5 multilabel plate reader at wavelength of 450 nm. The IC50 values were determined as concentrations that reduced cell viability by 50% and the curve was plotted with GraphPad Prism 6.0.
Percent (%) Inhibition was calculated by normalizing DMSO control values to 100% using the formula: % Inhibition=[…](Abs450test compound−blank)/(Abs450positive control−blank)*100
Test compound contains cells, test compound, IMDM medium and 0.5% DMSO
Positive control contains cells, IMDM medium and 0.5% DMSO
Blank contains IMDM medium

Chain of DHODH (Q02127 whole entry): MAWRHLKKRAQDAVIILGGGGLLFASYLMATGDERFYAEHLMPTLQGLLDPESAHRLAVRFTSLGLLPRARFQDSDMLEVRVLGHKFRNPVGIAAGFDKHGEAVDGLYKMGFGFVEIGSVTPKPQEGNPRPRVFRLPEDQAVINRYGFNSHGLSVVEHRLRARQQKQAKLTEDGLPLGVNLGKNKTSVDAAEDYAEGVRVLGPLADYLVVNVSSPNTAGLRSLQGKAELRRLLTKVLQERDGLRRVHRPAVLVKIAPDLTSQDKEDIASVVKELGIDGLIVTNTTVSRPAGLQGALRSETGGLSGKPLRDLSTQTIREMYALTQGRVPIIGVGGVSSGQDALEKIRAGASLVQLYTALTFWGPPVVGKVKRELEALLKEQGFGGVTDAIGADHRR

IC50 [1]	IC50 [2]	SMILES	inhibition at 30 µM [2]	inhibition at 10 µM ([2]; 10 μM, read-out: Maximum % Inhibition (at 10 μM))
101 to 1000 nM	3880 nM	Cc1ccc(C)n1-c1ccc(-c2cc(C(=O)O)c3nn(C)nc3c2)cc1 [Compound 13, 6-(4-(2,5-dimethyl-1H-pyrrol-1-yl)phenyl)-2-methyl-2H-benzo[d][1,2,3]triazole-4-carboxylic acid]	100%	
> 1000 nM		CN1CCN(Cc2cccc(-c3c(F)c(F)c(-c4cc(C(=O)O)c5c(c4)nnn5C)c(F)c3F)c2)CC1 [Compound 35, 1-methyl-5-(2,3,5,6-tetrafluoro-3′-((4-methylpiperazin-1-yl)methyl)-[1,1′-biphenyl]-4-yl)-1H-benzo[d][1,2,3]triazole-7-carboxylic acid]		
101 to 1000 nM	1600 nM	Cn1nc2cc(-c3c(F)c(F)c(-c4cccc(CN5CCCCC5)c4)c(F)c3F)cc(C(=O)O)c2n1 [Compound 38, 2-methyl-6-(2,3,5,6-tetrafluoro-3′-(piperidin-1-ylmethyl)-[1,1′-biphenyl]-4-yl)-2H-benzo[d][1,2,3]triazole-4-carboxylic acid]	92%	
> 1000 nM	3050 nM	Cn1nnc2cc(-c3ccc(-c4ccccc4CN4CCCC4)cc3)cc(C(=O)O)c21 [Compound 27, 1-methyl-5-(2′-(pyrrolidin-1-ylmethyl)-[1,1′-biphenyl]-4-yl)-1H-benzo[d][1,2,3]triazole-7-carboxylic acid]	89%	
< 100 nM	70 nM	Cn1nnc2cc(-c3c(F)c(F)c(-c4ccccc4)c(F)c3F)cc(C(=O)O)c21 [Compound 19, 1-methyl-5-(2,3,5,6-tetrafluoro-[1,1′-biphenyl]-4-yl)-1H-benzo[d][1,2,3]triazole-7-carboxylic acid]	106%	
101 to 1000 nM		Cn1nnc2cc(-c3c(F)c(F)c(-c4cccc(CN5CCOCC5)c4)c(F)c3F)cc(C(=O)O)c21 [Compound 33, 1-methyl-5-(2,3,5,6-tetrafluoro-3′-(morpholinomethyl)-[1,1′-biphenyl]-4-yl)-1H-benzo[d][1,2,3]triazole-7-carboxylic acid]		
> 1000 nM		Cn1nnc2cc(-c3ccc(-c4cccc(CN5CCCC5)c4)cc3)cc(C(=O)O)c21 [Compound 17, 1-methyl-5-(3′-(pyrrolidin-1-ylmethyl)-[1,1′-biphenyl]-4-yl)-1H-benzo[d][1,2,3]triazole-7-carboxylic acid]	50%	
< 100 nM	362 nM	Cc1ccc(C)n1-c1ccc(-c2cc(C(=O)O)c3c(c2)nnn3C)cc1 [Compound 12, 5-(4-(2,5-dimethyl-1H-pyrrol-1-yl)phenyl)-1-methyl-1H-benzo[d][1,2,3]triazole-7-carboxylic acid]	103%	
101 to 1000 nM	2820 nM	Cn1nnc2cc(-c3ccc(-c4ccccc4CN4CCOCC4)cc3)cc(C(=O)O)c21 [Compound 25, 1-methyl-5-(2′-(morpholinomethyl)-[1,1′-biphenyl]-4-yl)-1H-benzo[d][1,2,3]triazole-7-carboxylic acid]	120%	
< 100 nM	154 nM	Cc1ccccc1-c1ccc(-c2cc(C(=O)O)c3nn(C)nc3c2)cc1 [Compound 8, 2-methyl-6-(2′-methyl-[1,1′-biphenyl]-4-yl)-2H-benzo[d][1,2,3]triazole-4-carboxylic acid]	103%	
101 to 1000 nM	8970 nM	CN1CCN(Cc2ccccc2-c2ccc(C3=CC4N=NN(C)C4C(C(=O)O)=C3)cc2)CC1 (centres unmarked) [Compound 29, 1-methyl-5-(2′-((4-methylpiperazin-1-yl)methyl)-[1,1′-biphenyl]-4-yl)-3a,7a-dihydro-1H-benzo[d][1,2,3]triazole-7-carboxylic acid]	81%	
101 to 1000 nM		CC(C)NCc1cccc(-c2c(F)c(F)c(-c3cc(C(=O)O)c4c(c3)nnn4C)c(F)c2F)c1 [Compound 36, 1-methyl-5-(2,3,5,6-tetrafluoro-3′-((isopropylamino)methyl)-[1,1′-biphenyl]-4-yl)-1H-benzo[d][1,2,3]triazole-7-carboxylic acid]		
< 100 nM	400 nM	Cn1nc2cc(-c3c(F)c(F)c(-c4ccccc4)c(F)c3F)cc(C(=O)O)c2n1 [Compound 24, 2-methyl-6-(2,3,5,6-tetrafluoro-[1,1′-biphenyl]-4-yl)-2H-benzo[d][1,2,3]triazole-4-carboxylic acid]	104%	
> 1000 nM	6140 nM	Cn1nc2cc(-c3ccc(-c4cccc(CN5CCOCC5)c4)cc3)cc(C(=O)O)c2n1 [Compound 16, 2-methyl-6-(3′-(morpholinomethyl)-[1,1′-biphenyl]-4-yl)-2H-benzo[d][1,2,3]triazole-4-carboxylic acid]	124%	
101 to 1000 nM		Cc1ccccc1-c1ccc(-c2cc(C(N)=O)c3nn(C)nc3c2)cc1 [Compound 11, 2-methyl-6-(2′-methyl-[1,1′-biphenyl]-4-yl)-2H-benzo[d][1,2,3]triazole-4-carboxamide]		67%
101 to 1000 nM	1450 nM	Cn1nc2cc(-c3ccc(-c4ccccc4)cc3)cc(C(=O)O)c2n1 [Compound 4, 6-([1,1′-biphenyl]-4-yl)-2-methyl-2H-benzo[d][1,2,3]triazole-4-carboxylic acid]	107%	
> 1000 nM	4260 nM	Cn1nc2cc(-c3ccc(-c4ccccc4CN4CCOCC4)cc3)cc(C(=O)O)c2n1 [Compound 26, 2-methyl-6-(2′-(morpholinomethyl)-[1,1′-biphenyl]-4-yl)-2H-benzo[d][1,2,3]triazole-4-carboxylic acid]	133%	
101 to 1000 nM	1870 nM	Cn1nc2cc(-c3c(F)c(F)c(-c4cccc(CN5CCOCC5)c4)c(F)c3F)cc(C(=O)O)c2n1 [Compound 39, 2-methyl-6-(2,3,5,6-tetrafluoro-3′-(morpholinomethyl)-[1,1′-biphenyl]-4-yl)-2H-benzo[d][1,2,3]triazole-4-carboxylic acid]	96%	
< 100 nM	1090 nM	Cc1ccccc1-c1ccc(-c2cc(C(N)=O)c3c(c2)nnn3C)cc1 [Compound 2, 1-methyl-5-(2′-methyl-[1,1′-biphenyl]-4-yl)-1H-benzo[d] [1,2,3]triazole-7-carboxamide]	95%	
> 1000 nM		CNCc1cccc(-c2c(F)c(F)c(-c3cc(C(=O)O)c4c(c3)nnn4C)c(F)c2F)c1 [Compound 37, 1-methyl-5-(2,3,5,6-tetrafluoro-3′-((methylamino)methyl)-[1,1′-biphenyl]-4-yl)-1H-benzo[d][1,2,3]triazole-7-carboxylic acid]		
